Experimental data: ChEMBL document CHEMBL1667785, “Synthesis and structure-analgesic activity relationships of a novel series of monospirocyclopiperazinium salts (MSPZ)” (Bioorg Med Chem Lett, 2011)
pKi: −log10 of the molar value.

Assays:
Mus musculus = test: Analgesic activity in mouse assessed as inhibition of acetic acid-induced writhing at 20 umol/kg, sc administered 30 mins before to acetic acid challenge measured after 5 mins for 10 mins relative to control; assay type: functional; design: scale not given: the % may be the effect or the level left
[1] = target: Neuronal acetylcholine receptor subunit alpha-7 (Homo sapiens, UniProt P36544); test: Binding affinity to alpha7 nAChR
Chain of Neuronal acetylcholine receptor subunit alpha-7 (P36544 whole entry): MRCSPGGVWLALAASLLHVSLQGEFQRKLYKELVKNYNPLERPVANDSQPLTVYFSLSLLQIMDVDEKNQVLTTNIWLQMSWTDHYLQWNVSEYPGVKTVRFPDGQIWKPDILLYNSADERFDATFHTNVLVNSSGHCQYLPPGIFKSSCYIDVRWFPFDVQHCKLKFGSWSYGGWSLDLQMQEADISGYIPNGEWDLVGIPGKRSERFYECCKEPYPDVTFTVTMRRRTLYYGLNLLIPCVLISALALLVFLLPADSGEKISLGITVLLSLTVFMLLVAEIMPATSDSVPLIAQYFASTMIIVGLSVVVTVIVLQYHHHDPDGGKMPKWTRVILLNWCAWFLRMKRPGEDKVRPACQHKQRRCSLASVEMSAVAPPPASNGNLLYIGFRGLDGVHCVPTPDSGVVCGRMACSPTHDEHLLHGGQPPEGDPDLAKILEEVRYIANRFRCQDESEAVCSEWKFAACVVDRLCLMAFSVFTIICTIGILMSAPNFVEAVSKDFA

[2] = target: Neuronal acetylcholine receptor subunit beta-2 (Homo sapiens, UniProt P17787); test: Binding affinity to beta2 nAChR
Chain of Neuronal acetylcholine receptor subunit beta-2 (P17787 whole entry): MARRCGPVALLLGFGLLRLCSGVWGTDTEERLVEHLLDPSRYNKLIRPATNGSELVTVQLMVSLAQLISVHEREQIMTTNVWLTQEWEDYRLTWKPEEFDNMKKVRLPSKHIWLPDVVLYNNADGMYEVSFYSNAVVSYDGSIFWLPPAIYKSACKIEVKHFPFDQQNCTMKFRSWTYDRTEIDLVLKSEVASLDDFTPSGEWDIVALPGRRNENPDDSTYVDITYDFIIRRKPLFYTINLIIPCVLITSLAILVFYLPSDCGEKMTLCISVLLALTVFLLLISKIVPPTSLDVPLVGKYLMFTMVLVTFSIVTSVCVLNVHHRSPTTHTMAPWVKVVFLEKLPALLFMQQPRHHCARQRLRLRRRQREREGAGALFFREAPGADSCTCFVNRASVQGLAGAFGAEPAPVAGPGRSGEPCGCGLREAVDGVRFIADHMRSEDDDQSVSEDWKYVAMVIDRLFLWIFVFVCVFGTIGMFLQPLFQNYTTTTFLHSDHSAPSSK

Row | Compound | Activity (Mus musculus) [%] | also measured
1 | COc1ccc(N2CC[N+](C)(C)CC2)cc1.[Cl-] | 56 | 
2 | CCCC[N+]1(CCCC)CCN(c2ccc(OC)cc2)CC1.[Cl-] | 54 | 
3 | COc1ccc(N2CC[N+](C)(Cc3ccccc3)CC2)cc1.[Cl-] | 43 | 
4 | COc1ccc(N2CC[N+]3(CCCC3)CC2)cc1.[Cl-] | 41 | 
5 | COc1ccc(N2CC[N+]3(CCCCC3)CC2)cc1.[Cl-] | 26 | 
6 | COc1ccc(N2CC[N+]3(CCCCCC3)CC2)cc1.[Cl-] | 28 | 
7 | COc1ccc(N2CC[N+]3(CCOCC3)CC2)cc1.[Cl-] | 41 | 
8 | COc1ccc(N2CC[N+]3(CC2)CC(C)OC(C)C3)cc1.[Cl-] (centres undefined) | 21 | 
9 | COc1ccc(N2CC[N+]3(CCNCC3)CC2)cc1.[Cl-] | 5 | 
10 | COc1ccc(N2CC[N+]3(CCN(C)CC3)CC2)cc1.[Cl-] | 32 | 
11 | COc1ccc(N2CC[N+]3(CCN(CCc4ccccc4)CC3)CC2)cc1.[Cl-] | 27 | 
12 | COc1ccc(N2CC[N+]3(CC2)CCN(c2ccc(OC)cc2)CC3)cc1.[Cl-] | 17 | 
13 | COc1ccc(N2CC[N+]3(CCN(C(=O)c4ccccc4)CC3)CC2)cc1.[Cl-] | 50 | 
14 | COc1ccc(N2CC[N+]3(CCc4ccccc43)CC2)cc1.[Cl-] | 63 | 
15 | [Cl-].c1ccc(N2CC[N+]3(CCc4ccccc43)CC2)cc1 | 28 | 
16 | CS(=O)(=O)[O-].O=[N+]([O-])c1ccc(N2CC[N+]3(CCc4ccccc43)CC2)cc1 | 54 | 
17 | CS(=O)(=O)[O-].O=[N+]([O-])c1cccc(N2CC[N+]3(CCc4ccccc43)CC2)c1 | 39 | 
18 | COc1cccc(N2CC[N+]3(CCc4ccccc43)CC2)c1.[Cl-] | 37 | 
19 | Oc1cccc(N2CC[N+]3(CCc4ccccc43)CC2)c1.[Cl-] | 34 | 
20 | CC(=O)Nc1cccc(N2CC[N+]3(CCc4ccccc43)CC2)c1.[Cl-] | 39 | 
21 | Clc1ccccc1N1CC[N+]2(CCc3ccccc32)CC1.[Cl-] | 44 | 
22 | COc1ccccc1N1CC[N+]2(CCc3ccccc32)CC1.[Cl-] | 39 | 
23 | CC(COc1ccc(/C=C\c2ccccc2)cc1)[N+](C)(C)C (centres undefined) |  | pKi [1]: 7.24; pKi [2]: 4.41
